Measured values reported in patent US20230165252A1, “ACTIVE COMPOUND COMBINATIONS” (Bayer Aktiengesellschaft, priority 2020, published 2023).
Values joined by “and” are separate entries in the source; they are usually repeats but may differ in a detail not shown here. Equal entries are not always repeated. Where two headings read alike, the source gives them in different places.

What was measured:
Assay type in all cases: cell-based
[1] = system: Colletotrichum lindemuthianum; test: in vitro-Test with Colletotrichum lindemuthianum (microtiter growth inhibition); conditions: for inhibition of growth at 0.04 ppm: applied alone at 0.04 ppm; for inhibition of growth at 0.004 ppm: applied alone at 0.004 ppm; for inhibition of growth at 0.02 ppm: applied alone at 0.020 ppm; for inhibition of growth at 0.1 ppm: applied alone at 0.1 ppm; for inhibition of growth at 0.5 ppm: applied alone at 0.5 ppm
Protocol: The degree of efficacy expressed in % is denoted: 0% means an efficacy, which corresponds to that of the control, while an efficacy of 100% means that no disease is observed.
If the actual fungicidal activity exceeds the calculated value, then the activity of the combination is super-additive, i.e. a synergistic effect exists. In this case, the efficacy, which was actually observed, must be greater than the value for the expected efficacy (E), that was calculated from the abovementioned formula.
Example: In Vitro-Test with Fungal Microorganisms
Wells of 96-well microtiter plates are filled with 10 μl of a preparation of test compound or compound combination in methanol+emulsifier alkylaryl-polyglycol-ether. Thereafter, the solvent is evaporated in a hood. At the next step, 100 μl of liquid potato dextrose medium is given into each well, that has been amended with an appropriate concentration of spores or mycelium suspension of the test fungus.
With the aid of a photometer, the extinction in all wells is measured at the wavelength of 620 nm.
The microtiter plates are incubated at 20° C. and 85% relative humidity. The inhibition of growth is determined again photometrically 3-5 days after the application. Efficacy is calculated in relation to the untreated control, 0% efficacy means fungal growth as high as in untreated control while 100% efficacy means no fungal growth is measured.

Parastagonospora nodorum = test: in vitro-Test with Parastagonospora nodorum (microtiter growth inhibition)
How it was run: (§1)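 Fungal spores or mycelium in liquid potato dextrose medium are incubated on wells pre-coated with evaporated test material at 20° C. and 85% humidity. Absorbance at 620 nm is taken initially and 3-5 days post-application; efficacy (%) is scaled from untreated control growth (0%) to no growth (100%).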

[2] = system: Ustilago segetum var. avenae; test: in vitro-Test with Ustilago segetum var. avenae (microtiter growth inhibition); conditions: for inhibition of growth at 0.02 ppm: 0.020 ppm
How it was run: as §1

Botrytis cinerea = test: in vitro-Test with Botrytis cinerea (microtiter growth inhibition); conditions: for Efficacy: applied alone
How it was run: as §1

Cercospora beticola = test: in vitro-Test with Cercospora beticola (microtiter growth inhibition)
How it was run: as §1

Fusarium culmorum = test: in vitro-Test with Fusarium culmorum (microtiter growth inhibition); conditions: Fusarium culmorum, read-out: Efficacy; for inhibition of growth at 0.02 ppm: 0.020 ppm
How it was run: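 Steps: dry the compound (methanol with alkylaryl-polyglycol-ether) in each well; add potato dextrose liquid medium containing fungal spores or mycelium; record 620 nm extinction; incubate at 20° C. and 85% relative humidity; re-measure photometrically after 3-5 days. Efficacy in % against untreated wells.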

Alternaria alternate = test: in vitro-Test with Alternaria alternate (microtiter growth inhibition); conditions: Alternaria, alone, read-out: Efficacy %
How it was run: as §1

Diaporthe citri = test: in vitro-Test with Diaporthe citri (microtiter growth inhibition); conditions: Diaporthe citri, applied alone, read-out: Efficacy; for inhibition of growth at 0.02 ppm: 0.020 ppm
How it was run: as §1

Cordana musae = test: in vitro-Test with Cordana musae (microtiter growth inhibition); conditions: Neocordana musae, single substance, read-out: Efficacy; for inhibition of growth at 0.02 ppm: 0.020 ppm
How it was run: as §1

[3] = Colletotrichum lindemuthianum, applied alone at 0.008 ppm, read-out: Efficacy %
[4] = Colletotrichum lindemuthianum, read-out: Efficacy %
[5] = Colletotrichum lindemuthianum, applied alone at 1.0 ppm, read-out: Efficacy %
[6] = Parastagonospora nodorum, compound alone, read-out: Efficacy %
[7] = compound alone, 0.2 ppm, read-out: Efficacy %
[8] = Parastagonospora nodorum, compound alone, 0.004 ppm, read-out: Efficacy %
[9] = Parastagonospora nodorum, compound alone, 0.020 ppm, read-out: Efficacy %
[10] = Parastagonospora nodorum, compound alone, 0.1 ppm, read-out: Efficacy %
[11] = Parastagonospora nodorum, compound alone, 0.5 ppm, read-out: Efficacy %
[12] = compound alone, read-out: Efficacy %
[13] = single compound, read-out: Efficacy %

Compound: CC1COC(Cn2cncn2)(c2ccc(Oc3ccc(Cl)cc3)cc2Cl)O1 (stereo not shown) [(1.002) difenoconazole]
- inhibition of growth at 0.008 ppm [1, 3]: 2%
- inhibition of growth at 0.04 ppm [1, 4]: 13%
- inhibition of growth at 1 ppm [1, 5]: 13%
- inhibition of growth at 0.04 ppm (Parastagonospora nodorum; [6]): 16%
- inhibition of growth at 0.2 ppm (Parastagonospora nodorum; [6]): 83%
- Efficacy % (Parastagonospora nodorum; compound alone, 0.008 ppm): 0%
- Efficacy % (Parastagonospora nodorum; compound alone, 1.0 ppm): 97%
- inhibition of growth at 0.008 ppm ([2]; compound alone, 0.008 ppm, read-out: Efficacy %): 14%
- inhibition of growth at 0.2 ppm [2, 7]: 57%

Compound: CC(C)c1ccc(Cl)cc1CN(C(=O)c1c(C(F)F)nn(C)c1F)C1CC1 [(2.038) isoflucypram]
- Efficacy % ([1]; applied alone at 0.008 ppm): 15% and 8%
- Efficacy % ([1]; applied alone at 1.0 ppm): 5%
- Efficacy % ([2]; compound alone, 0.008 ppm): 7%
- Efficacy % ([2]; compound alone, 0.2 ppm): 100% and 98%
- Efficacy % ([2]; compound alone, 1.0 ppm): 100%
- Efficacy % (Botrytis cinerea; single active at 0.04 ppm): 43% and 57%
- Efficacy % (Botrytis cinerea; single active at 0.2 ppm): 63% and 75%
- Efficacy % (Botrytis cinerea; single active at 1.0 ppm): 83% and 87%

Compound: CON=C(C(=O)OC)c1ccccc1CON=C(C)c1cccc(C(F)(F)F)c1 [(3.020) trifloxystrobin]
- inhibition of growth at 0.008 ppm [1, 3]: 27%
- inhibition of growth at 0.04 ppm [1, 4]: 56%
- inhibition of growth at 0.2 ppm ([1]; Colletotrichum lindemuthianum, applied alone at 0.2 ppm, read-out: Efficacy %): 78%
- inhibition of growth at 1 ppm [1, 5]: 79%
- Efficacy % ([1]; applied alone at 0.2 ppm): 77%
- inhibition of growth at 0.008 ppm (Parastagonospora nodorum; Parastagonospora nodorum, compound alone, 0.008 ppm, read-out: Efficacy %): 36%
- inhibition of growth at 0.04 ppm (Parastagonospora nodorum; [6]): 61%
- inhibition of growth at 0.2 ppm (Parastagonospora nodorum; [6]): 75%
- inhibition of growth at 1 ppm (Parastagonospora nodorum; Parastagonospora nodorum, compound alone, 1.0 ppm, read-out: Efficacy %): 83%
- inhibition of growth at 0.2 ppm [2, 7]: 53%
- inhibition of growth at 1 ppm ([2]; compound alone, 1.0 ppm, read-out: Efficacy %): 82%
- inhibition of growth at 0.008 ppm (Botrytis cinerea; Botrytis cinerea, single active at 0.008 ppm, read-out: Efficacy %): 0%
- inhibition of growth at 0.2 ppm (Botrytis cinerea; Botrytis cinerea, single active at 0.2 ppm, read-out: Efficacy %): 3%
- inhibition of growth at 1 ppm (Botrytis cinerea; Botrytis cinerea, single active at 1.0 ppm, read-out: Efficacy %): 14%

Compound: CCO[PH](=O)[O-].CCO[PH](=O)[O-].CCO[PH](=O)[O-].[Al+3] [(15.012) fosetyl-aluminium]
- Efficacy % ([1]; applied alone at 0.8 ppm): 0%
- Efficacy % ([1]; applied alone at 4 ppm): 7%
- Efficacy % ([1]; applied alone at 20 ppm): 0%
- Efficacy % ([1]; applied alone at 100 ppm): 53%
- Efficacy % (Cercospora beticola; applied alone at 0.8 ppm): 0%
- Efficacy % (Cercospora beticola; applied alone at 4 ppm): 0%
- Efficacy % (Cercospora beticola; applied alone at 20 ppm): 4%
- Efficacy % (Cercospora beticola; applied alone at 100 ppm): 15%
- Efficacy % (Parastagonospora nodorum; compound alone, 0.8 ppm): 0%
- Efficacy % (Parastagonospora nodorum; compound alone, 4 ppm): 2%

Compound: COc1cc(C)c(C(=O)c2c(OC)ccc(Br)c2C)c(OC)c1OC [(15.016) metrafenone]
- inhibition of growth at 4 ppm ([1]; Colletotrichum lindemuthianum, applied alone at 4 ppm, read-out: Efficacy %): 15%
- inhibition of growth at 20 ppm ([1]; Colletotrichum lindemuthianum, applied alone at 20 ppm, read-out: Efficacy %): 10%
- inhibition of growth at 0.8 ppm (Cercospora beticola; Cercospora beticola, applied alone at 0.8 ppm, read-out: Efficacy %): 0%
- inhibition of growth at 4 ppm (Cercospora beticola; Cercospora beticola, applied alone at 4 ppm, read-out: Efficacy %): 13%
- inhibition of growth at 0.8 ppm (Botrytis cinerea; Botrytis cinerea, single active at 0.8 ppm, read-out: Efficacy %): 0%

Compound: Cc1ccc(C(F)(F)CNC(=O)c2c(Oc3cccc(C4CC4)c3F)nnc(Cl)c2C)c(C)c1 [Compound I-655, 6-chloro-3-(3-cyclopropyl-2-fluorophenoxy)-N-[2-(2,4-dimethylphenyl)-2,2-difluoroethyl]-5-methylpyridazine-4-carboxamide]
- inhibition of growth at 0.004 ppm [1, 4]: 0%
- inhibition of growth at 0.02 ppm [1, 4]: 20%
- inhibition of growth at 0.1 ppm [1, 4]: 98%
- inhibition of growth at 0.5 ppm [1, 4]: 100%
- inhibition of growth at 0.004 ppm (Fusarium culmorum): 0%
- inhibition of growth at 0.02 ppm (Fusarium culmorum): 7%
- inhibition of growth at 0.1 ppm (Fusarium culmorum): 7%
- inhibition of growth at 0.5 ppm (Fusarium culmorum): 19%
- inhibition of growth at 0.004 ppm (Alternaria alternate): 0%
- inhibition of growth at 0.02 ppm (Alternaria alternate): 0%
- inhibition of growth at 0.1 ppm (Alternaria alternate): 20%
- inhibition of growth at 0.5 ppm (Alternaria alternate): 100%
- Efficacy (Parastagonospora nodorum; 0.004 ppm): 0%
- Efficacy (Parastagonospora nodorum; 0.020 ppm): 0%
- Efficacy (Parastagonospora nodorum; 0.1 ppm): 41%
- Efficacy (Parastagonospora nodorum; 0.5 ppm): 100%
- inhibition of growth at 0.004 ppm (Parastagonospora nodorum; [8]): 0%
- inhibition of growth at 0.02 ppm (Parastagonospora nodorum; [9]): 0%
- inhibition of growth at 0.1 ppm (Parastagonospora nodorum; [10]): 41%
- inhibition of growth at 0.5 ppm (Parastagonospora nodorum; [11]): 100%
- inhibition of growth at 0.004 ppm (Diaporthe citri): 0%
- inhibition of growth at 0.02 ppm (Diaporthe citri): 0%
- inhibition of growth at 0.1 ppm (Diaporthe citri): 13%
- inhibition of growth at 0.5 ppm (Diaporthe citri): 100%
- inhibition of growth at 0.004 ppm (Cordana musae): 2%
- inhibition of growth at 0.02 ppm (Cordana musae): 4%
- inhibition of growth at 0.1 ppm (Cordana musae): 100%
- inhibition of growth at 0.5 ppm (Cordana musae): 100%
- inhibition of growth at 0.004 ppm [2, 12]: 7%
- inhibition of growth at 0.02 ppm [2, 12]: 6%
- inhibition of growth at 0.1 ppm [2, 12]: 0%
- inhibition of growth at 0.5 ppm [2, 12]: 0%
- Efficacy (Botrytis cinerea; 0.004 ppm): 0%
- Efficacy (Botrytis cinerea; 0.020 ppm): 0%
- Efficacy (Botrytis cinerea; 0.1 ppm): 58%
- Efficacy (Botrytis cinerea; 0.5 ppm): 100%

Compound: Cc1ccc(C(F)(F)CNC(=O)c2c(Oc3cccc(C4CC4)c3F)nnc(Cl)c2C)c(Cl)c1 [Compound I-746, 6-chloro-N-[2-(2-chloro-4-methylphenyl)-2,2-difluoroethyl]-3-(3-cyclopropyl-2-fluoro-phenoxy)-5-methylpyridazine-4-carboxamide]
- inhibition of growth at 0.004 ppm [1, 4]: 0%
- inhibition of growth at 0.02 ppm [1, 4]: 14%
- inhibition of growth at 0.1 ppm [1, 4]: 100%
- inhibition of growth at 0.5 ppm [1, 4]: 100%
- inhibition of growth at 0.004 ppm (Fusarium culmorum): 0%
- inhibition of growth at 0.02 ppm (Fusarium culmorum): 0%
- inhibition of growth at 0.1 ppm (Fusarium culmorum): 0%
- inhibition of growth at 0.5 ppm (Fusarium culmorum): 0%
- inhibition of growth at 0.004 ppm (Cercospora beticola; Cercospora beticola, alone, 0.004 ppm, read-out: Efficacy %): 0%
- inhibition of growth at 0.02 ppm (Cercospora beticola; Cercospora beticola, alone, 0.020 ppm, read-out: Efficacy %): 5%
- inhibition of growth at 0.1 ppm (Cercospora beticola; Cercospora beticola, alone, 0.1 ppm, read-out: Efficacy %): 4%
- inhibition of growth at 0.5 ppm (Cercospora beticola; Cercospora beticola, alone, 0.5 ppm, read-out: Efficacy %): 26%
- inhibition of growth at 0.004 ppm (Alternaria alternate): 0%
- inhibition of growth at 0.02 ppm (Alternaria alternate): 0%
- inhibition of growth at 0.1 ppm (Alternaria alternate): 22%
- inhibition of growth at 0.5 ppm (Alternaria alternate): 100%
- inhibition of growth at 0.004 ppm (Parastagonospora nodorum; [8]): 0%
- inhibition of growth at 0.02 ppm (Parastagonospora nodorum; [9]): 0%
- inhibition of growth at 0.1 ppm (Parastagonospora nodorum; [10]): 31%
- inhibition of growth at 0.5 ppm (Parastagonospora nodorum; [11]): 100%
- inhibition of growth at 0.004 ppm (Diaporthe citri): 0%
- inhibition of growth at 0.02 ppm (Diaporthe citri): 0%
- inhibition of growth at 0.1 ppm (Diaporthe citri): 2%
- inhibition of growth at 0.5 ppm (Diaporthe citri): 51%
- inhibition of growth at 0.004 ppm (Cordana musae): 0%
- inhibition of growth at 0.02 ppm (Cordana musae): 10%
- inhibition of growth at 0.1 ppm (Cordana musae): 79%
- inhibition of growth at 0.5 ppm (Cordana musae): 100%
- inhibition of growth at 0.004 ppm [2, 12]: 0%
- inhibition of growth at 0.02 ppm [2, 12]: 2%
- inhibition of growth at 0.1 ppm [2, 12]: 0%
- inhibition of growth at 0.5 ppm [2, 12]: 0%
- inhibition of growth at 0.004 ppm [2, 13]: 0%
- inhibition of growth at 0.02 ppm [2, 13]: 2%
- inhibition of growth at 0.1 ppm [2, 13]: 0%
- inhibition of growth at 0.5 ppm [2, 13]: 0%
